Where “and” joins values, the source holds several entries; their conditions need not be identical. Equal values may be shown once. ± gives the uncertainty stated by the source.
Assay: xn = mol fraction of the nth substance listed

CC#N + CO
Settings | viscosity
298.15 K, 101 kPa, x1 = 0.0892 | 0.478 ± 0.006 mPa·s
298.15 K, 101 kPa, x1 = 0.1871 | 0.431 ± 0.005 mPa·s
298.15 K, 101 kPa, x1 = 0.2884 | 0.397 ± 0.005 mPa·s
298.15 K, 101 kPa, x1 = 0.4054 | 0.365 ± 0.004 mPa·s
298.15 K, 101 kPa, x1 = 0.4849 | 0.351 ± 0.004 mPa·s
298.15 K, 101 kPa, x1 = 0.5981 | 0.339 ± 0.004 mPa·s
298.15 K, 101 kPa, x1 = 0.6986 | 0.331 ± 0.004 mPa·s
298.15 K, 101 kPa, x1 = 0.8078 | 0.327 ± 0.004 mPa·s
298.15 K, 101 kPa, x1 = 0.9013 | 0.329 ± 0.004 mPa·s
298.15 K, 101 kPa, x2 = 0.1219 | 0.331 ± 0.003 mPa·s
298.15 K, 101 kPa, x2 = 0.178 | 0.334 ± 0.004 mPa·s
298.15 K, 101 kPa, x2 = 0.2 | 0.334 ± 0.001 mPa·s
298.15 K, 101 kPa, x2 = 0.216 | 0.329 ± 0.003 mPa·s and 0.333 ± 0.004 mPa·s
298.15 K, 101 kPa, x2 = 0.3487 | 0.334 ± 0.003 mPa·s
298.15 K, 101 kPa, x2 = 0.378 | 0.342 ± 0.004 mPa·s
298.15 K, 101 kPa, x2 = 0.394 | 0.343 ± 0.004 mPa·s
298.15 K, 101 kPa, x2 = 0.4 | 0.343 ± 0.001 mPa·s
298.15 K, 101 kPa, x2 = 0.412 | 0.345 ± 0.004 mPa·s
298.15 K, 101 kPa, x2 = 0.577 | 0.369 ± 0.004 mPa·s
298.15 K, 101 kPa, x2 = 0.6 | 0.373 ± 0.001 mPa·s
298.15 K, 101 kPa, x2 = 0.6804 | 0.339 ± 0.003 mPa·s
298.15 K, 101 kPa, x2 = 0.711 | 0.402 ± 0.004 mPa·s
298.15 K, 101 kPa, x2 = 0.743 | 0.419 ± 0.005 mPa·s
298.15 K, 101 kPa, x2 = 0.8 | 0.435 ± 0.001 mPa·s
298.15 K, 101 kPa, x2 = 0.86 | 0.459 ± 0.005 mPa·s
298.15 K, 101 kPa, x2 = 0.881 | 0.469 ± 0.005 mPa·s
298.15 K, 101 kPa, x2 = 0.887 | 0.472 ± 0.005 mPa·s
298.15 K, 101 kPa, x2 = 0.9 | 0.48 ± 0.004 mPa·s
298.15 K, 101.33 kPa, x1 = 0.0495 | 0.509 ± 0.004 mPa·s
298.15 K, 101.33 kPa, x1 = 0.0999 | 0.479 ± 0.004 mPa·s
298.15 K, 101.33 kPa, x1 = 0.1494 | 0.455 ± 0.003 mPa·s
298.15 K, 101.33 kPa, x1 = 0.1995 | 0.434 ± 0.003 mPa·s
298.15 K, 101.33 kPa, x1 = 0.245 | 0.418 ± 0.003 mPa·s
298.15 K, 101.33 kPa, x1 = 0.2998 | 0.4 ± 0.003 mPa·s
298.15 K, 101.33 kPa, x1 = 0.3451 | 0.387 ± 0.003 mPa·s
298.15 K, 101.33 kPa, x1 = 0.3997 | 0.374 ± 0.003 mPa·s
298.15 K, 101.33 kPa, x1 = 0.4489 | 0.364 ± 0.003 mPa·s
298.15 K, 101.33 kPa, x1 = 0.495 | 0.357 ± 0.003 mPa·s
298.15 K, 101.33 kPa, x1 = 0.5496 | 0.349 ± 0.003 mPa·s
298.15 K, 101.33 kPa, x1 = 0.5999 | 0.343 ± 0.003 mPa·s
298.15 K, 101.33 kPa, x1 = 0.6494 | 0.34 ± 0.003 mPa·s
298.15 K, 101.33 kPa, x1 = 0.6997 | 0.336 ± 0.003 mPa·s
298.15 K, 101.33 kPa, x1 = 0.745 | 0.334 ± 0.003 mPa·s
298.15 K, 101.33 kPa, x1 = 0.7995 | 0.333 ± 0.003 mPa·s
298.15 K, 101.33 kPa, x1 = 0.8496 | 0.335 ± 0.003 mPa·s
298.15 K, 101.33 kPa, x1 = 0.8998 | 0.338 ± 0.003 mPa·s
298.15 K, 101.33 kPa, x1 = 0.95 | 0.34 ± 0.003 mPa·s
303 K, 100 kPa, x1 = 0.0991 | 0.4985 ± 0.05 mPa·s
303 K, 100 kPa, x1 = 0.2043 | 0.4812 ± 0.049 mPa·s
303 K, 100 kPa, x1 = 0.316 | 0.4588 ± 0.046 mPa·s
303 K, 100 kPa, x1 = 0.4039 | 0.4395 ± 0.044 mPa·s
303 K, 100 kPa, x1 = 0.5003 | 0.4202 ± 0.042 mPa·s
303 K, 100 kPa, x1 = 0.6063 | 0.4016 ± 0.041 mPa·s
303 K, 100 kPa, x1 = 0.7402 | 0.3785 ± 0.038 mPa·s
303 K, 100 kPa, x1 = 0.8688 | 0.3645 ± 0.037 mPa·s
303.15 K, 101 kPa, x1 = 0.0892 | 0.423 ± 0.005 mPa·s
303.15 K, 101 kPa, x1 = 0.1871 | 0.385 ± 0.005 mPa·s
303.15 K, 101 kPa, x1 = 0.2884 | 0.357 ± 0.004 mPa·s
303.15 K, 101 kPa, x1 = 0.4054 | 0.327 ± 0.004 mPa·s
303.15 K, 101 kPa, x1 = 0.4849 | 0.317 ± 0.004 mPa·s
303.15 K, 101 kPa, x1 = 0.5981 | 0.308 ± 0.004 mPa·s
303.15 K, 101 kPa, x1 = 0.6986 | 0.302 ± 0.004 mPa·s
303.15 K, 101 kPa, x1 = 0.8078 | 0.299 ± 0.004 mPa·s
303.15 K, 101 kPa, x1 = 0.8746 | 0.514 ± 0.23 mPa·s
303.15 K, 101 kPa, x1 = 0.9013 | 0.304 ± 0.004 mPa·s
308 K, 100 kPa, x1 = 0.0991 | 0.4521 ± 0.045 mPa·s
308 K, 100 kPa, x1 = 0.2043 | 0.4145 ± 0.042 mPa·s
308 K, 100 kPa, x1 = 0.316 | 0.3945 ± 0.04 mPa·s
308 K, 100 kPa, x1 = 0.4039 | 0.3815 ± 0.038 mPa·s
308 K, 100 kPa, x1 = 0.5003 | 0.3712 ± 0.037 mPa·s
308 K, 100 kPa, x1 = 0.6063 | 0.3621 ± 0.036 mPa·s
308 K, 100 kPa, x1 = 0.7402 | 0.3502 ± 0.035 mPa·s
308 K, 100 kPa, x1 = 0.8688 | 0.3423 ± 0.034 mPa·s
308.15 K, 101 kPa, x1 = 0.0892 | 0.376 ± 0.004 mPa·s
308.15 K, 101 kPa, x1 = 0.1871 | 0.346 ± 0.004 mPa·s
308.15 K, 101 kPa, x1 = 0.2884 | 0.321 ± 0.004 mPa·s
308.15 K, 101 kPa, x1 = 0.4054 | 0.298 ± 0.004 mPa·s
308.15 K, 101 kPa, x1 = 0.4849 | 0.291 ± 0.004 mPa·s
308.15 K, 101 kPa, x1 = 0.5981 | 0.282 ± 0.003 mPa·s
308.15 K, 101 kPa, x1 = 0.6986 | 0.278 ± 0.003 mPa·s
308.15 K, 101 kPa, x1 = 0.8078 | 0.276 ± 0.003 mPa·s
308.15 K, 101 kPa, x1 = 0.9013 | 0.28 ± 0.003 mPa·s
308.15 K, 101.33 kPa, x1 = 0.0495 | 0.451 ± 0.003 mPa·s
308.15 K, 101.33 kPa, x1 = 0.0999 | 0.436 ± 0.003 mPa·s
308.15 K, 101.33 kPa, x1 = 0.1494 | 0.412 ± 0.003 mPa·s
308.15 K, 101.33 kPa, x1 = 0.1995 | 0.395 ± 0.003 mPa·s
308.15 K, 101.33 kPa, x1 = 0.245 | 0.38 ± 0.003 mPa·s
308.15 K, 101.33 kPa, x1 = 0.2998 | 0.364 ± 0.003 mPa·s
308.15 K, 101.33 kPa, x1 = 0.3451 | 0.352 ± 0.003 mPa·s
308.15 K, 101.33 kPa, x1 = 0.3997 | 0.341 ± 0.003 mPa·s
308.15 K, 101.33 kPa, x1 = 0.4489 | 0.333 ± 0.003 mPa·s
308.15 K, 101.33 kPa, x1 = 0.495 | 0.326 ± 0.003 mPa·s
308.15 K, 101.33 kPa, x1 = 0.5496 | 0.32 ± 0.003 mPa·s
308.15 K, 101.33 kPa, x1 = 0.5999 | 0.314 ± 0.003 mPa·s
308.15 K, 101.33 kPa, x1 = 0.6494 | 0.31 ± 0.003 mPa·s
308.15 K, 101.33 kPa, x1 = 0.6997 | 0.307 ± 0.003 mPa·s
308.15 K, 101.33 kPa, x1 = 0.745 | 0.305 ± 0.003 mPa·s
308.15 K, 101.33 kPa, x1 = 0.7995 | 0.305 ± 0.003 mPa·s
308.15 K, 101.33 kPa, x1 = 0.8496 | 0.306 ± 0.003 mPa·s
308.15 K, 101.33 kPa, x1 = 0.8998 | 0.307 ± 0.003 mPa·s
308.15 K, 101.33 kPa, x1 = 0.95 | 0.309 ± 0.003 mPa·s
313 K, 100 kPa, x1 = 0.0991 | 0.4125 ± 0.042 mPa·s
313 K, 100 kPa, x1 = 0.2043 | 0.3956 ± 0.04 mPa·s
313 K, 100 kPa, x1 = 0.316 | 0.3838 ± 0.039 mPa·s
313 K, 100 kPa, x1 = 0.4039 | 0.3736 ± 0.038 mPa·s
313 K, 100 kPa, x1 = 0.5003 | 0.3612 ± 0.036 mPa·s
313 K, 100 kPa, x1 = 0.6063 | 0.3512 ± 0.035 mPa·s
313 K, 100 kPa, x1 = 0.7402 | 0.3375 ± 0.034 mPa·s
313 K, 100 kPa, x1 = 0.8688 | 0.3215 ± 0.032 mPa·s
318.15 K, 101.33 kPa, x1 = 0.0495 | 0.403 ± 0.003 mPa·s
318.15 K, 101.33 kPa, x1 = 0.0999 | 0.39 ± 0.003 mPa·s
318.15 K, 101.33 kPa, x1 = 0.1494 | 0.376 ± 0.003 mPa·s
318.15 K, 101.33 kPa, x1 = 0.1995 | 0.361 ± 0.003 mPa·s
318.15 K, 101.33 kPa, x1 = 0.245 | 0.347 ± 0.003 mPa·s
318.15 K, 101.33 kPa, x1 = 0.2998 | 0.333 ± 0.003 mPa·s
318.15 K, 101.33 kPa, x1 = 0.3451 | 0.323 ± 0.003 mPa·s
318.15 K, 101.33 kPa, x1 = 0.3997 | 0.313 ± 0.003 mPa·s
318.15 K, 101.33 kPa, x1 = 0.4489 | 0.306 ± 0.003 mPa·s
318.15 K, 101.33 kPa, x1 = 0.495 | 0.3 ± 0.003 mPa·s

From the CheMixHub viscosity set
